Results: ChEMBL document CHEMBL1201862, “PubChem BioAssay data set” (2004)
Calls of active or inactive are those of the source.

Tests used:
[1] = molecular target: 72 kDa type IV collagenase (Homo sapiens, UniProt P08253); test: Dose Response validation of uHTS RPN11 inhibitor hits using a MMP-2 Fluorescence assay.; format: functional
[2] = molecular target: 26S proteasome non-ATPase regulatory subunit 14 (Homo sapiens, UniProt O00487); test: inhibition of proteasome subunit RPN11 – biochemical, fluorescence polarization, uHTS hits, confirmation (AID 602368); format: functional
Prothrombin = Prothrombin (Bos taurus, UniProt P00735); test: thrombin protease inhibitors – biochemical, fluorescence polarization, uHTS hits, dose response (AID 602369); format: functional
[3] = molecular target: T1, High affinity choline transporter 1 (Homo sapiens, UniProt Q9GZV3); test: human choline transporter potentiators, potency – cell-based, 10-point CRC, membrane potential dye, dose response (AID 602376); format: functional
T1 sequence (Q9GZV3 whole entry): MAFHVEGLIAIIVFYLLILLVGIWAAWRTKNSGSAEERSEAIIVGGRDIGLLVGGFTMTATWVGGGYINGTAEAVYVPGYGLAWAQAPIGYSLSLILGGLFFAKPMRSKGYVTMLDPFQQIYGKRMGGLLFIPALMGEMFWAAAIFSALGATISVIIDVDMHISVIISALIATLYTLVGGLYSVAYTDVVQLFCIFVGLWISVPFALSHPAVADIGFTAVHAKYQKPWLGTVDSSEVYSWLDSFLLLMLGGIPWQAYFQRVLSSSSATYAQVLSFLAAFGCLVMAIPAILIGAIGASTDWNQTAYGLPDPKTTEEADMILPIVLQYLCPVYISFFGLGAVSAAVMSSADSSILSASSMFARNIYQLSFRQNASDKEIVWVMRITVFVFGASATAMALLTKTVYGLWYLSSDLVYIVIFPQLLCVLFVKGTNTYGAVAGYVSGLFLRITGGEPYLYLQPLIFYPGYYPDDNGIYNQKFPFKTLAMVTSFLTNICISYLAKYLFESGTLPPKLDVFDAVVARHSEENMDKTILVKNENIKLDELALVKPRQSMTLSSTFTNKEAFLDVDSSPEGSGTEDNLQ

Hexokinase HKDC1 [4] = molecular target: T2, Hexokinase HKDC1 (Homo sapiens, UniProt Q2TB90); test: SAR analysis of small molecule inhibitors of hexokinase domain containing I (HKDC1) - Set 3. [Related pubchem assays (depositor defined):AID493160, AID493190]; format: functional
T2 sequence (Q2TB90 whole entry): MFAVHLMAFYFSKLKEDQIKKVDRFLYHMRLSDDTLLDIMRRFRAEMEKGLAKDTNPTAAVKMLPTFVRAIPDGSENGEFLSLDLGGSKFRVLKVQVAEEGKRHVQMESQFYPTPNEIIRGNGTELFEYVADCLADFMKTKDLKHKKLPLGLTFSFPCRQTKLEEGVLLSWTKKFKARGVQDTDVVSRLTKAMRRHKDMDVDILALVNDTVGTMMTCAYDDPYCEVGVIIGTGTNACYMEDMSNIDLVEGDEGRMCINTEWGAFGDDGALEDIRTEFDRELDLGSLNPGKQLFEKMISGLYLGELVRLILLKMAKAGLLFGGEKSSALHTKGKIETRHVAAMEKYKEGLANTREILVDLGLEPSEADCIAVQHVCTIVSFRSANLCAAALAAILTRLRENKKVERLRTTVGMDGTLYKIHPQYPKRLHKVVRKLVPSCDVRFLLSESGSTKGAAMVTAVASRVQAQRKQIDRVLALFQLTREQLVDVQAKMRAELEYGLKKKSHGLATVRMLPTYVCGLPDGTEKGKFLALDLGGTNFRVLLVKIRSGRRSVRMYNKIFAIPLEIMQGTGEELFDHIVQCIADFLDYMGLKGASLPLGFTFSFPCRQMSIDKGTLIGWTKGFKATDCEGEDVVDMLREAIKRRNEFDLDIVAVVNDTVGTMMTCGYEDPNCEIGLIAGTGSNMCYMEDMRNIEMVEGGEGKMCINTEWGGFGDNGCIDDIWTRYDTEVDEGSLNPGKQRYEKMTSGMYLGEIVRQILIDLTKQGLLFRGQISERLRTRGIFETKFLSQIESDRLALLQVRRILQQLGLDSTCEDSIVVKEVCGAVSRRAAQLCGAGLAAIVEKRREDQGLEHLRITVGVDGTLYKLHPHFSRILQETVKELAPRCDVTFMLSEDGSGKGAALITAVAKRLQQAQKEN

Hexokinase-1 = Hexokinase-1 (Homo sapiens, UniProt P19367); test: hexokinase 1 activity inhibitors, potency – biochemical, set 2, resazurin fluorescence coupled readout, selectivity assay for HKDC1 inhibitor project, SAR follow-up (AID 588356); format: functional
Hexokinase HKDC1 [5] = molecular target: T2, Hexokinase HKDC1; test: analog inhibition of human HKDC1 activity – biochemical, set 2, SAR follow-up (AID 588355); format: functional
[6] = molecular target: DNA (cytosine-5)-methyltransferase 1 (Homo sapiens, UniProt P26358); test: inhibition of DNA methylation by DNMT1 – biochemical, fluorescent molecular beacon, confirmation (AID 602386); format: functional
[7] = molecular target: T3, DNA repair protein RAD52 homolog (Homo sapiens, UniProt P43351); format: functional, biochemical
T3 sequence (P43351 whole entry): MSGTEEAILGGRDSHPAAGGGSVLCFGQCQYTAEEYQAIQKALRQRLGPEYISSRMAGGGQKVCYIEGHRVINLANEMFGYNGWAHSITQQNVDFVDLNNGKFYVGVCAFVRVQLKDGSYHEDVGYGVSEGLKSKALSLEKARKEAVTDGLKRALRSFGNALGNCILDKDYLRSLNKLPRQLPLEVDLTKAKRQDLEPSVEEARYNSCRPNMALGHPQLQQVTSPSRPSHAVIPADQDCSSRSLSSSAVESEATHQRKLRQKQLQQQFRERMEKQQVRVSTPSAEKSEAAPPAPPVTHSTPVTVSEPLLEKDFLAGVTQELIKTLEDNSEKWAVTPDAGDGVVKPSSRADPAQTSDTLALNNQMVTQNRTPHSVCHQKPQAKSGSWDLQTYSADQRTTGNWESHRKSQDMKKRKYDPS

[8] = THP-1 cell cytotoxicity, dose response, cytotoxicity control, set 3 (AID 504852); format: functional; conditions: Mycobacterium tuberculosis
[9] = molecular target: T4, Rac GTPase-activating protein 1 (Homo sapiens, UniProt Q9H0H5); test: blockers of MgcRacGAP-driven Rac1 GTP hydrolysis – biochemical, ADP Hunter fluorescence, primary and confirmatory, confirmation (AID 624330); format: functional
T4 sequence (Q9H0H5 whole entry): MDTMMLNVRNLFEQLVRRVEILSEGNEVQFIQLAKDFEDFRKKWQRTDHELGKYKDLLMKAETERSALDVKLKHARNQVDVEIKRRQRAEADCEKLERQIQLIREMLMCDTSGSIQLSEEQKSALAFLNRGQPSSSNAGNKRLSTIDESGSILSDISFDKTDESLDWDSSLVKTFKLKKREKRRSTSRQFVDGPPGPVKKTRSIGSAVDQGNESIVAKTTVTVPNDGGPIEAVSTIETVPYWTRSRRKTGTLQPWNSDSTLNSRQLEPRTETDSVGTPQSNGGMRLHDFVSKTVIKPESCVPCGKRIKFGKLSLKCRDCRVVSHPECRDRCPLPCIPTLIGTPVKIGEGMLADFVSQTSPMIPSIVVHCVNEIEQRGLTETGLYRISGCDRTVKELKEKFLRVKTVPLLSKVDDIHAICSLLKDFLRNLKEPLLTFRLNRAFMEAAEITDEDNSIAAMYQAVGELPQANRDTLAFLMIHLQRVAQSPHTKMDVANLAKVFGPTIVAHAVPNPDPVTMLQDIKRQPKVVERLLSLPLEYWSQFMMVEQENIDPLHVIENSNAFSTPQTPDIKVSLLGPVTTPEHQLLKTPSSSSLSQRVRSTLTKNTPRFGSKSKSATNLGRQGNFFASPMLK

[10] = THP-1 cell cytotoxicity, cytotoxicity control, set 4 (AID 504911); format: functional; conditions: Mycobacterium tuberculosis
[11] = A Cell Based Secondary Assay to Explore Cytotoxicity in THP-1 Cells of Compounds that Modulate Mycobacterium tuberculosis in Media Containing Glycerol versus Media without Glycerol (2).; format: functional
[12] = molecular target: Cell division cycle 7-related protein kinase (Homo sapiens, UniProt O00311); format: functional;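 also: value obtained from a kinome-wide kinase panel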
Cell division cycle 7-related protein kinase, sequence (O00311 whole entry): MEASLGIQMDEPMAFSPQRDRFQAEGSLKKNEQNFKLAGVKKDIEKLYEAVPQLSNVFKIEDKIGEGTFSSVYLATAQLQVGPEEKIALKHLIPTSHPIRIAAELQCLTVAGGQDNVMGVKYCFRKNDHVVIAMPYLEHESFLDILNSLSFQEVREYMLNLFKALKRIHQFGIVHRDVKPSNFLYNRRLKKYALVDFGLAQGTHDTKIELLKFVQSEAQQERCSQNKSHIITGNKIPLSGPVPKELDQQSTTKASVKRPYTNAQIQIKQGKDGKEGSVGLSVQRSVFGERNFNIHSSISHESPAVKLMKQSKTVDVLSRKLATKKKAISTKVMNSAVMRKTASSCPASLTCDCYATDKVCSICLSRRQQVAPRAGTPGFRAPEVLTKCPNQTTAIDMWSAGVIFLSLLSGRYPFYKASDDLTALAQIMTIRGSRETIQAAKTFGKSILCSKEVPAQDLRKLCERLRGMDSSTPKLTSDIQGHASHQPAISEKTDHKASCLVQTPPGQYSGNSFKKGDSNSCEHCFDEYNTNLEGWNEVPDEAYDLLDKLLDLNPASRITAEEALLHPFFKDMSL

[13] = molecular target: ALK tyrosine kinase receptor (Homo sapiens, UniProt Q9UM73); format: functional;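 also: ALK tested as one member of a kinase panel screen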
[14] = molecular target: Serine/threonine-protein kinase pim-1 (Homo sapiens, UniProt P11309); format: functional
[15] = molecular target: Mitogen-activated protein kinase kinase kinase kinase 4 (Homo sapiens, UniProt O95819); format: functional
Mitogen-activated protein kinase kinase kinase kinase 4, sequence (O95819 whole entry): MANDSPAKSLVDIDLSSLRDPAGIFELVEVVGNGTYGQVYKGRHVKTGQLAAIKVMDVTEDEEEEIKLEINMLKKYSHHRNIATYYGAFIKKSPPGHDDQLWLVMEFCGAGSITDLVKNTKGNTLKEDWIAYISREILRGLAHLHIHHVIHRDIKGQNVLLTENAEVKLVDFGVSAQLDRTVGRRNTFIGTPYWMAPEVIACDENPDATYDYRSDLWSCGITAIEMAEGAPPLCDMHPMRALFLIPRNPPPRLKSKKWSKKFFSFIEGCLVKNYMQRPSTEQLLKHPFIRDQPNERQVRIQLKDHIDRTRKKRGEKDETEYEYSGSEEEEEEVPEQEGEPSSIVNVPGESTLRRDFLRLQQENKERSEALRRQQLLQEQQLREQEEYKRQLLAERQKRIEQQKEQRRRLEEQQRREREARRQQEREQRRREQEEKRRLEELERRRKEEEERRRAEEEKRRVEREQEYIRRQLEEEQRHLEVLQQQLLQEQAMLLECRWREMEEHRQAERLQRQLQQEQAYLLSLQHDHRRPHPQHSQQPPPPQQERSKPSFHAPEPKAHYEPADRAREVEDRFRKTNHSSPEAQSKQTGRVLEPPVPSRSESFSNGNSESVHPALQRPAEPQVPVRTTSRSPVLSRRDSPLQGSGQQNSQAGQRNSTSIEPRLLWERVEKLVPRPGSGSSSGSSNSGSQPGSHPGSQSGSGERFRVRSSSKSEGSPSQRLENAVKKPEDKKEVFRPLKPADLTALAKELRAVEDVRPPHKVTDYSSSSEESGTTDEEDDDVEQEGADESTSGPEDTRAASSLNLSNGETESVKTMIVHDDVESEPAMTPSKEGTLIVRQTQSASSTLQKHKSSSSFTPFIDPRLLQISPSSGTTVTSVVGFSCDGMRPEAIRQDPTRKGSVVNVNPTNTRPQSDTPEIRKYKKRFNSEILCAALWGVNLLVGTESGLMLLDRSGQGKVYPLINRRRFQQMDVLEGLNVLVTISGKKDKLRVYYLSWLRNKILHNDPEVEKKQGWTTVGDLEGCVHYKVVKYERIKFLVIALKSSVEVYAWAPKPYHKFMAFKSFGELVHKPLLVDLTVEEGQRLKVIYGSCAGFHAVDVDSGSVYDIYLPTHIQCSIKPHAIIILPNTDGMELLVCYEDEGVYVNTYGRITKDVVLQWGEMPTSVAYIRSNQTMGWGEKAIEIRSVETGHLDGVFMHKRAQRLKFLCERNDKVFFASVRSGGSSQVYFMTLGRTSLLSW

[16] = molecular target: Interleukin-1 receptor-associated kinase 4 (Homo sapiens, UniProt Q9NWZ3); format: functional
Interleukin-1 receptor-associated kinase 4, sequence (Q9NWZ3 whole entry): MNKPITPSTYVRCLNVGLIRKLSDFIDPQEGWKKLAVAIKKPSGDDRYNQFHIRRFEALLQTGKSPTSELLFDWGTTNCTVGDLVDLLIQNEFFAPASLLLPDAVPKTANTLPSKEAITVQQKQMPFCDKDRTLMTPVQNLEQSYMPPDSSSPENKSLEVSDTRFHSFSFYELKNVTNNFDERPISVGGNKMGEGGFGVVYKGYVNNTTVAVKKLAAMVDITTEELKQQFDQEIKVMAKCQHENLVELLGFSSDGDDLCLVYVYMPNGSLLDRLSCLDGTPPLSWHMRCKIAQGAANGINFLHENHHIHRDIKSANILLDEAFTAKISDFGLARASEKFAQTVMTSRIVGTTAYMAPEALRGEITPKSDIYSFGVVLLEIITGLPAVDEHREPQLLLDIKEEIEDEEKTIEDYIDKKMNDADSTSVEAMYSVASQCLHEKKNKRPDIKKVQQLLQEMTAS

[17] = molecular target: Dual specificity protein kinase CLK4 (Homo sapiens, UniProt Q9HAZ1); format: functional
Dual specificity protein kinase CLK4, sequence (Q9HAZ1 whole entry): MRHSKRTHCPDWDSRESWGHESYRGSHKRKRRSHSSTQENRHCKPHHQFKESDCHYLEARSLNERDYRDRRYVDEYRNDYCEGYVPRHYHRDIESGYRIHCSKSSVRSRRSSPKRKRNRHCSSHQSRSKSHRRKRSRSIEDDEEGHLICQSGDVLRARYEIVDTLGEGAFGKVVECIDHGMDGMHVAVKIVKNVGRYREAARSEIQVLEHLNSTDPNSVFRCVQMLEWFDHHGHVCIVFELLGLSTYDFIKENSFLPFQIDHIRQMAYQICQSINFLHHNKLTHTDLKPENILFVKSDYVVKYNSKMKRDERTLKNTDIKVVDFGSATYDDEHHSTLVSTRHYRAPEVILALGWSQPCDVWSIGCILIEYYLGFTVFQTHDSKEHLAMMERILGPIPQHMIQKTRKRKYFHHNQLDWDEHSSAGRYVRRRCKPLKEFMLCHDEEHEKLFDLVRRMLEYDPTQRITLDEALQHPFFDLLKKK

[18] = molecular target: Glycogen synthase kinase-3 beta (Homo sapiens, UniProt P49841); format: functional;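 also: value comes from a broad kinome profiling panel, with GSK3B as the panel member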
Glycogen synthase kinase-3 beta, sequence (P49841 whole entry): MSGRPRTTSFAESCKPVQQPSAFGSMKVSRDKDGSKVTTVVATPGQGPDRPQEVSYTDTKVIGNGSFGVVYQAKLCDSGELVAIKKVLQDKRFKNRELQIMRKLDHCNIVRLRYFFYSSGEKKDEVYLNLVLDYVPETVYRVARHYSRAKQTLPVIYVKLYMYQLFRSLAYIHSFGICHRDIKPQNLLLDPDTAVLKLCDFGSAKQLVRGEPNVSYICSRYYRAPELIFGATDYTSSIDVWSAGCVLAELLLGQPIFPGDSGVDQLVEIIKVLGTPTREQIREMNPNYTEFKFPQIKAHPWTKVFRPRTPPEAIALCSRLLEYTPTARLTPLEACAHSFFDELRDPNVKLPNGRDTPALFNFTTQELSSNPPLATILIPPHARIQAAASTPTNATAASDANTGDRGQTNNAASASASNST

[19] = molecular target: cAMP-dependent protein kinase catalytic subunit alpha (Homo sapiens, UniProt P17612); format: functional
[20] = molecular target: Homeodomain-interacting protein kinase 2 (Homo sapiens, UniProt Q9H2X6); format: functional;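 also: measured within a kinome-wide kinase profiling panel, HIPK2 being one panel member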
Misshapen-like kinase 1 = Misshapen-like kinase 1 (Homo sapiens, UniProt Q8N4C8); format: functional;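 also: kinome panel screen with MINK as the panel member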
[21] = molecular target: Cyclin-dependent kinase 5 (Homo sapiens, UniProt Q00535); format: functional;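 also: CDK5 measured as one member of a kinase profiling panel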
[22] = molecular target: STE20-like serine/threonine-protein kinase (Homo sapiens, UniProt Q9H2G2); format: functional
STE20-like serine/threonine-protein kinase, sequence (Q9H2G2 whole entry): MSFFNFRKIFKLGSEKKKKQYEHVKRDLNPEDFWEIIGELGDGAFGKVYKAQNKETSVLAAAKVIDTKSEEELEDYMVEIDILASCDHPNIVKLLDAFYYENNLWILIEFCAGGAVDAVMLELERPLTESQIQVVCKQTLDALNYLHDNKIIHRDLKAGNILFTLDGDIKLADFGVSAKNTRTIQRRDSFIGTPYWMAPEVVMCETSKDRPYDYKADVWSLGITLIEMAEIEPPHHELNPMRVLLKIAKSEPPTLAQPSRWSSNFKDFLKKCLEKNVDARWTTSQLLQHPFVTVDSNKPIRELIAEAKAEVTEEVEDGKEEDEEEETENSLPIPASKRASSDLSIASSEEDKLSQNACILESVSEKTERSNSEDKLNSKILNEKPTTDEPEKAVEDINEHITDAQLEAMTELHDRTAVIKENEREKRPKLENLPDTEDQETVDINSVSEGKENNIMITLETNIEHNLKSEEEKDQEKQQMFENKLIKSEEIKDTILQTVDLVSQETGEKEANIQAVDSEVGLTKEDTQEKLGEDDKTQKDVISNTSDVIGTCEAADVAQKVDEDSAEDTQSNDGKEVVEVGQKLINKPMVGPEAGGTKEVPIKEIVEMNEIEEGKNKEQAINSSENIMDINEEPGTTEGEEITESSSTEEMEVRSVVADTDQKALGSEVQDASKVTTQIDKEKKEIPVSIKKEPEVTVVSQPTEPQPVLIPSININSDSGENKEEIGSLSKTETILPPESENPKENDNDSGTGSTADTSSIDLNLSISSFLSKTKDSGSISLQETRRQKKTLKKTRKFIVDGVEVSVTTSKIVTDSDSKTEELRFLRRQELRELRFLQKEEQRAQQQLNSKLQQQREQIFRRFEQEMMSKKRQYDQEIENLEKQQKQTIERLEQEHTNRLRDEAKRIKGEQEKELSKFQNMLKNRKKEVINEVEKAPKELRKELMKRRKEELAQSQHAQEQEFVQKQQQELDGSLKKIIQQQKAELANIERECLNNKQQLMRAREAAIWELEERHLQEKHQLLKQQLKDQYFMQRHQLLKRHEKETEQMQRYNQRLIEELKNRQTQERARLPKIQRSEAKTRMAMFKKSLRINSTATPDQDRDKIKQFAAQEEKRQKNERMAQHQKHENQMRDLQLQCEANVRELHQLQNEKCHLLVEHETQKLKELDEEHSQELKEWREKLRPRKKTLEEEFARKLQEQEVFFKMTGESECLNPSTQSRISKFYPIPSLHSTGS

[23] = molecular target: Dual specificity protein kinase CLK2 (Homo sapiens, UniProt P49760); format: functional
Dual specificity protein kinase CLK2, sequence (P49760 whole entry): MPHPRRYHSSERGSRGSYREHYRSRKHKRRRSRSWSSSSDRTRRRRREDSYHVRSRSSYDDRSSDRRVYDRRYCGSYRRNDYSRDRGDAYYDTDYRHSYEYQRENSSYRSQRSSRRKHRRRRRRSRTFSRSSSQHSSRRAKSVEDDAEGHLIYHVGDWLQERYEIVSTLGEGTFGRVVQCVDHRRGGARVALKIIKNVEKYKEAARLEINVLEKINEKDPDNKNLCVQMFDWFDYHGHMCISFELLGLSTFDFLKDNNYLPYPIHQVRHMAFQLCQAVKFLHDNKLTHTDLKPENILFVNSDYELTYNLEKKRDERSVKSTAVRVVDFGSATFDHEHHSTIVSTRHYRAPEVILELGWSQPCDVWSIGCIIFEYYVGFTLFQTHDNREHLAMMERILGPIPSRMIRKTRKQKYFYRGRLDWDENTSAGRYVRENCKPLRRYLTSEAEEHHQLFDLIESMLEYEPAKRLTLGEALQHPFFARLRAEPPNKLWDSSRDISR

[24] = molecular target: Cyclin-dependent kinase 1 (Homo sapiens, UniProt P06493); format: functional;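 also: Kinome-wide panel profiling, with the target listed as panel member CDC2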
[25] = molecular target: Tyrosine-protein kinase receptor UFO (Homo sapiens, UniProt P30530); format: functional
[26] = molecular target: MAP/microtubule affinity-regulating kinase 3 (Homo sapiens, UniProt P27448); format: functional;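 also: MARK3 affinity measured as one member of a kinome panel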

## COc1ccc(CCNc2ccc(C(CC(N)=O)NC(=O)Cc3cccc4ccccc34)cc2[N+](=O)[O-])cc1 (stereo not drawn)
[1]
  IC50: > 100 µM (inactive)
[2]
  IC50: 25.8 µM (active)
Prothrombin
  IC50: 40.1 µM (active)

## CC(NCc1cc(Br)ccc1OCC(N)=O)C12CC3CC(CC(C3)C1)C2 (stereo not drawn)
[3]
  EC50: 13.8 µM (active)

## CC(=O)NC1C(=O)N(CCN2CCOCC2)c2ccc(Br)cc21 (stereo not drawn)
Hexokinase HKDC1 [4]
  IC50: > 80 µM (inactive)
Hexokinase-1
  IC50: > 80 µM (inactive)
Hexokinase HKDC1 [5]
  IC50: > 80 µM (inactive)

## CC[N+](C)(CC)CCCCOc1ccc2c(c1)C(=O)c1cc(OCCCC[N+](C)(CC)CC)ccc1-2
[6]
  IC50: 1.24 µM (active)
[7]
  AC50: 0.574 µM (active)
[8]
  CC50: 17.1 µM (active)
[9]
  IC50: 180 µM (active)
[10]
  CC50: 10.5 µM (active)
[11]
  CC50: 38.8 µM (active)

## Oc1cccc(-c2c[nH]c3ncccc23)c1
[12]
  Ki: 0.316 µM (active)
[13]
  Ki: > 3.16 µM (inactive)

## O=C1Nc2ccccc2Nc2cc(-c3ccncc3)ccc21
[14]
  Ki: > 10 µM (inactive)
[15]
  Ki: 1.26 µM (active)
[16]
  Ki: 2.51 µM (active)
[17]
  Ki: 0.0398 µM (active)
[12]
  Ki: 0.00794 µM (active)
[18]
  Ki: 0.398 µM (active)
[19]
  Ki: 1.26 µM (active)
[20]
  Ki: > 3.16 µM (inactive)

## CC(C)Oc1ccc(-c2noc(-c3ccc(CN4CC(C(=O)O)C4)cc3)n2)cc1Cl
Misshapen-like kinase 1
  Ki: 6.31 µM (active)
[15]
  Ki: 5.01 µM (active)

## Cc1n[nH]c2c1C(c1ccccc1Br)C(C#N)=C(N)O2 (stereo not drawn)
[21]
  Ki: 3.16 µM (active)
[22]
  Ki: 1.58 µM (active)
[17]
  Ki: 5.01 µM (active)
[18]
  Ki: 3.98 µM (active)
[23]
  Ki: 3.16 µM (active)
[24]
  Ki: 5.01 µM (active)
[25]
  Ki: 2 µM (active)
[26]
  Ki: 2 µM (active)
